Assay results from patent US4786651A, “Treatment of cutaneous hyperproliferative dermatoses with manoalide” (Allergan, Inc., priority 1986, dated 1988).

Legend:
ODC = conditions: tape-stripped mouse epidermis; M. Connor and N. Lowe 1983; cited from earlier work
humans = conditions: cited from earlier work
keratinocytes = assay: Inhibition of DNA synthesis in neonatal mouse keratinocyte cultures (3H-thymidine; In Vitro Assay); assay type: cell-based, mouse (neonatal balb/c); conditions: daily drug for three days; FIG. 2
Description: (§1) Tape-stripping mouse epidermis is quick and convenient method of inducing ODC activity that avoids the necessity of handling carcinogens. M. Connor and N. Lowe (J. Invest. Dermatol 43, 5174, 1983) have studied the ability of retinoids to inhibit ODC. […] In vitro methods have also been useful in determining the anti-hyperproliferative activity of drugs. C. Marcelo and J. Tomich (J. Invest. Dermatol. 81, 64s, 1983) have shown that neonatal mouse keratinocyte cultures can be used to identify drugs that inhibit DNA synthesis. More recently, R. Weiss, Eichner, R. and Sunn, T. T, J. Cell Biol., 98: 1397-1406, (1984) have shown that epidermal cultures are in fact, a model of epidermal hyperproliferation and therefore a good model for testing drugs that inhibit hyperporliferation.
Keratinocytes from 1-2 day old neonatal balb/c mice were used. Cells were plated in 35 mm culture dishes in M199 medium containing 10% FCS and incubated at 37° C. in 5% CO2. Cells were allowed to reach confluency at which time 0.01, 0.1, 1.0, 10 and 20 μM manoalide was added in DMSO. Fresh media and drug were added each day to culture for three days. On the fourth day cells were pulsed with ^3 H-thymidine (1 µCi/ml) to determine how much manoalide inhibited DNA syntheses (CPM/μg DNA).

[1] = test system: ornithine decarboxylase (ODC); assay: Tape-stripped epidermal ODC activity in female hairless mice (In Vivo Assay); set-up: species or system mouse (female hairless mice)
Description: as §1
Female hairless mice were tape-stripped and ODC activity determined according to the method of M. Connor and N. Lowe (J. Invest. Dermatol. 43, 5174, 1983).
**50 mg/kg; IP, 30 min before tapestripping

Row | SMILES | inhibition of ODC (ODC) | therapeutic activity in humans (humans) | inhibition of keratinocyte DNA synthesis (keratinocytes) | % Inhibition (ODC) ([1]; 50 mg/kg, IP, 30 min before tapestripping, p < .05) | ODC ([1]; 50 mg/kg, IP, 30 min before tapestripping, vehicle (soybean oil) 6.1 ± 1.2) | inhibition of tape-stripped ODC after systemic administration ([1]; systemic administration)
1 | CC1=C(/C=C/C(C)=C/C=C/C(C)=C/C(=O)O)C(C)(C)CCC1 [Trans-retinoic acid] | active at inhibiting ODC | therapeutically active in humans |  |  |  | 
2 | CC1=C(CC/C(C)=C/CCC2=CCC(C3=CC(=O)OC3O)OC2O)C(C)(C)CCC1 (stereo not shown) [Manoalide] |  |  | inhibit keratinocyte DNA synthesis in a dose related fashion | 54% | 2.8 ± 0.6 nmoles ^14 CO2 (mg protein/mg protein/hr) | can also inhibit tape-stripped ODC
3 | CC1=C(/C=C/C(C)=C/C=C/C(C)=C\C(=O)O)C(C)(C)CCC1 [13-cis retinoic acid] | active at inhibiting ODC | therapeutically active in humans |  |  |  | 
4 | CCOC(=O)/C=C(C)/C=C/C=C(C)/C=C/c1c(C)cc(OC)c(C)c1C [etretinate] | active at inhibiting ODC | therapeutically active in humans |  |  |  | 
